Patent publication US20160073662A1, “PRESERVATIVE AND ADDITIVE FOR FOOD AND FEED” (priority 2014, published 2016)

Test: Contact of acid solution with human skin
Conditions: solution with a pH of less than 0.5

O=S(=O)(O)O [sulfuric acid]
irritation of hand put into solution: an irritation would occur
